{
  "source": "ChEMBL document CHEMBL1129671",
  "about": "“Substituted (pyrroloamino)pyridines: potential agents for the treatment of Alzheimer's disease” (J Med Chem, 1996)",
  "key": {"[1]": {"biological_target": "T1, Muscarinic acetylcholine receptor M1 (Rattus norvegicus, UniProt P08482)", "T1 sequence (P08482 whole entry)": "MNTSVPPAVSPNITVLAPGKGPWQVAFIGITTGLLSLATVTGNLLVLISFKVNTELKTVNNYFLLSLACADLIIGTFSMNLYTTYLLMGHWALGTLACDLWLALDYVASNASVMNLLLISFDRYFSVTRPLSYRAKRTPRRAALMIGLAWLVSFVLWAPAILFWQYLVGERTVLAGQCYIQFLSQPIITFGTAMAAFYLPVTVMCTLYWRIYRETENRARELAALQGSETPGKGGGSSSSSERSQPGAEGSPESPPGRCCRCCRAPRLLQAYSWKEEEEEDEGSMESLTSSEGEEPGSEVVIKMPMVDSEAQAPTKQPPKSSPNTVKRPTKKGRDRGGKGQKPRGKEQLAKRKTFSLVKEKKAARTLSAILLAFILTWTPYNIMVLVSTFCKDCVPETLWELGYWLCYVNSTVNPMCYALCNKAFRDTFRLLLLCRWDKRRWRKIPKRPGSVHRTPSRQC", "assay": "Compound was tested for inhibition of [3H]pirenzepine binding against Muscarinic acetylcholine receptor M1 from rat cortical membranes using in vitro cholinergic receptor binding assay.", "format": "cell membranes, Membrane"}, "Rattus norvegicus [2]": {"species_on_record": "Rattus norvegicus", "assay": "Compound was tested for inhibition of [3H]dopamine against rat striatum using in vitro biogenic amine uptake assay using rat brain synaptosomes.", "format": "functional"}, "[3]": {"biological_target": "Muscarinic acetylcholine receptor", "assay": "Inhibition of radioligand [3H]QNB binding to muscarinic acetylcholine receptor in the rat forebrain in the presence of zinc"}, "Mus musculus [4]": {"test_system": "Mus musculus", "assay": "Evaluated for the prevention of TBZ ptosis by intraperitoneal administration in mice", "format": "functional", "details": "ip"}, "Rattus norvegicus [5]": {"species_on_record": "Rattus norvegicus", "assay": "Compound was tested for inhibition of [3H]5-HT against rat whole brain using in vitro biogenic amine uptake assay using rat brain synaptosomes.", "format": "functional"}, "Mus musculus [6]": {"test_system": "Mus musculus", "assay": "Antagonistic activity against scopolamine-induced behavioral deficits in mice by subcutaneous administration at a concentration of 0.16 mg/kg", "format": "functional"}, "Mus musculus [7]": {"test_system": "Mus musculus", "assay": "Antagonistic activity against scopolamine-induced behavioral deficits in mice by subcutaneous administration at a concentration of 5.0 mg/kg", "format": "functional"}, "Mus musculus [8]": {"test_system": "Mus musculus", "assay": "Antagonistic activity against scopolamine-induced behavioral deficits in mice by subcutaneous administration at a concentration of 0.31 mg/kg", "format": "functional"}, "Mus musculus [9]": {"test_system": "Mus musculus", "assay": "Antagonistic activity against scopolamine-induced behavioral deficits in mice by subcutaneous administration at a concentration of 0.63 mg/kg", "format": "functional"}, "[10]": {"biological_target": "T2, Adrenergic receptor alpha-1 (Rattus norvegicus, UniProt P15823+P23944+P43140)", "T2 sequence (P15823 whole entry)": "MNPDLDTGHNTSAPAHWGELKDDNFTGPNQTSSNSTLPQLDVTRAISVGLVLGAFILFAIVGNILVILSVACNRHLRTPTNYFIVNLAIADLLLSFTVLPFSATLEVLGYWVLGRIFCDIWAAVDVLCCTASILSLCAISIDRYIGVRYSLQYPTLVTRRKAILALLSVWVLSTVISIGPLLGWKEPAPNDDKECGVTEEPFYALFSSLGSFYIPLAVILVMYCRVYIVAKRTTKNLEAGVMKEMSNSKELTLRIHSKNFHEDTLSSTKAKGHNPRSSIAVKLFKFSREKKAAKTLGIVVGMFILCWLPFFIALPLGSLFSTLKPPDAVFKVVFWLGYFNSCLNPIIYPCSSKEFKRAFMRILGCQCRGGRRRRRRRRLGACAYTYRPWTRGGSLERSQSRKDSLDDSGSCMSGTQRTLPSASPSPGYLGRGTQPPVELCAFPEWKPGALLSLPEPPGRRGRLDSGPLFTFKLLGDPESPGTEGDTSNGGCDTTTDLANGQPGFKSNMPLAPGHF", "T2 sequence (P23944 whole entry)": "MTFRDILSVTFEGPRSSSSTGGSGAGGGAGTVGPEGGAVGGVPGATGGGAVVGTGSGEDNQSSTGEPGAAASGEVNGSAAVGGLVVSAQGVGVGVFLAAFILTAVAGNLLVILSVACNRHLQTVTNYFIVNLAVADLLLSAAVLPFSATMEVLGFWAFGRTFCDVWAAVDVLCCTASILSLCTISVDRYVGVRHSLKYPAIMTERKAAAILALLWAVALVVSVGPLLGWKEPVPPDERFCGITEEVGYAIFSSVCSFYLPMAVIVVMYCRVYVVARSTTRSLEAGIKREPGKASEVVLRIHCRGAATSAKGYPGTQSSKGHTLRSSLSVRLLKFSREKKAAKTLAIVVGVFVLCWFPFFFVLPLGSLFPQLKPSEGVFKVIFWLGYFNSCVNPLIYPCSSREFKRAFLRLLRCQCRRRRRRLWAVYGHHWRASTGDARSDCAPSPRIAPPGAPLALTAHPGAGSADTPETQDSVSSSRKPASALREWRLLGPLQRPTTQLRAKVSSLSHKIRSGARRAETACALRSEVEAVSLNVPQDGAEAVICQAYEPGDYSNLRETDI", "T2 sequence (P43140 whole entry)": "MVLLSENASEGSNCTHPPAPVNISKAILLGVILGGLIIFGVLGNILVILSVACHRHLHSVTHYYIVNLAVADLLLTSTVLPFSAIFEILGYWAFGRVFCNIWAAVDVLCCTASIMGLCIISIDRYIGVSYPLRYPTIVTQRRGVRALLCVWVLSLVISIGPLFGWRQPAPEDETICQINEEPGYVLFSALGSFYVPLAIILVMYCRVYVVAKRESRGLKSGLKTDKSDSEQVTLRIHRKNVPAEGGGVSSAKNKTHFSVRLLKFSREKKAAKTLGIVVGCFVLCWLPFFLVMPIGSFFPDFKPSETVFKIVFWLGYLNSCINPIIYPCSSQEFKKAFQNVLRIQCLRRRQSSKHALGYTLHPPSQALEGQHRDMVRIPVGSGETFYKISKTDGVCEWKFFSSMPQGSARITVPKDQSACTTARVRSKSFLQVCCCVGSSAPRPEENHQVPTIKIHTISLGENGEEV", "assay": "Compound was tested for inhibition of [3H]WB-4101 against Alpha-1 adrenergic receptor from rat whole brain membranes using in vitro adrenergic receptor binding assay.", "format": "cell membranes, Membrane"}, "Mus musculus [11]": {"test_system": "Mus musculus", "assay": "Antagonistic activity against scopolamine-induced behavioral deficits in mice by subcutaneous administration at a concentration of 1.25 mg/kg", "format": "functional"}, "Mus musculus [12]": {"test_system": "Mus musculus", "assay": "Antagonistic activity against scopolamine-induced behavioral deficits in mice by subcutaneous administration at a concentration of 2.5 mg/kg", "format": "functional"}, "[13]": {"biological_target": "Muscarinic acetylcholine receptor", "assay": "Inhibition of radioligand [3H]QNB binding (competitive inhibition) to muscarinic acetylcholine receptor in the rat forebrain in the absence of zinc"}, "Rattus norvegicus [14]": {"species_on_record": "Rattus norvegicus", "assay": "Compound was tested for inhibition of [3H]norepinephrine against rat whole brain using in vitro biogenic amine uptake assay using rat brain synaptosomes.", "format": "functional"}},
  "data": [
    {"compound": "C=Cc1cccn1N(C)c1ccncc1", "values": [
      {"measurement": "IC50", "setting": "[1]", "value": 5.1, "unit": "µM"},
      {"measurement": "IC50", "setting": "Rattus norvegicus [2]", "value": "> 20", "unit": "µM"},
      {"measurement": "IC50", "setting": "[3]", "value": 18, "unit": "µM"},
      {"measurement": "ED50", "setting": "Mus musculus [4]", "value": 8.3, "unit": "mg/kg"},
      {"measurement": "IC50", "setting": "Rattus norvegicus [5]", "value": "> 20", "unit": "µM"},
      {"measurement": "Response", "setting": "Mus musculus [6]", "value": 27, "unit": "%"},
      {"measurement": "Response", "setting": "Mus musculus [7]", "value": 20, "unit": "%"},
      {"measurement": "Response", "setting": "Mus musculus [8]", "value": 33, "unit": "%"},
      {"measurement": "Response", "setting": "Mus musculus [9]", "value": 33, "unit": "%"},
      {"measurement": "IC50", "setting": "[10]", "value": 5.9, "unit": "µM"},
      {"measurement": "Response", "setting": "Mus musculus [11]", "value": 33, "unit": "%"},
      {"measurement": "Response", "setting": "Mus musculus [12]", "value": 27, "unit": "%"},
      {"measurement": "IC50", "setting": "[13]", "value": 8.8, "unit": "µM"},
      {"measurement": "IC50", "setting": "Rattus norvegicus [14]", "value": 14, "unit": "µM"}
    ]}
  ]
}
